In test [1] the target is B1 bradykinin receptor (Homo sapiens) (UniProt P46663). The experiment in a line: Inhibition of Bradykinin B1 at 10 µM in the Eurofins-Panlabs radioligand binding assay (Eurofins_assay_212510). As to conditions: Compound concentration 10.0 uM.
The target of test [2] is Sodium-dependent noradrenaline transporter (Homo sapiens, UniProt P23975). The experiment in a line: Inhibition of Transporter, Norepinephrine (NET) at compound concentration of 10.0 uM in the Eurofins-Panlabs radioligand binding assay (Eurofins_assay_204410). Also noted: ligand concentration 0.2 nM, non-specific ligand with concentration 10 uM Desipramine, incubation time 3 h, incubation temperature 4 C.

The target of test [3] is Mitogen-activated protein kinase 14 (Homo sapiens) (UniProt Q16539). The experiment in a line: Inhibition of Protein Serine/Threonine Kinase, MAPK14 (p38α) at 10 µM in the Eurofins-Panlabs enzyme assay (Eurofins_assay_176610). As to conditions: Compound concentration 10.0 uM. Also noted: substrate with concentration.
Sequence of Mitogen-activated protein kinase 14 (Homo sapiens) (Q16539 whole entry): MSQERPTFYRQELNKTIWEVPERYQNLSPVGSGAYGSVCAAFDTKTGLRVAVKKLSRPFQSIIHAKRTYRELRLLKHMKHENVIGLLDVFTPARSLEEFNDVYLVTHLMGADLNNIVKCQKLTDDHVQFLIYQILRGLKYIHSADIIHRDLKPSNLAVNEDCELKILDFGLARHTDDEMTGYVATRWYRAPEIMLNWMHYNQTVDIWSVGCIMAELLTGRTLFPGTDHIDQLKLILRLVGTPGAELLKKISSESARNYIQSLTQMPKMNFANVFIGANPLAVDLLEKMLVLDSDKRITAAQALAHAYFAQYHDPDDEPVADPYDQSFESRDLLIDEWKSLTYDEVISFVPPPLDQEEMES
The test system of test [4] is Tyrosine-protein kinase ABL1 (Homo sapiens), P00519 [E255K]. The experiment in a line: ABL1 E255K Kinase screen. As to conditions: Compound concentration 1.0 uM.
For test [5], the target named is RAC-beta serine/threonine-protein kinase (Homo sapiens) (UniProt P31751). The experiment in a line: AKT2 (PKB beta) Kinase screen. As to conditions: Compound concentration 1.0 uM.
Sequence of RAC-beta serine/threonine-protein kinase (Homo sapiens) (P31751 whole entry): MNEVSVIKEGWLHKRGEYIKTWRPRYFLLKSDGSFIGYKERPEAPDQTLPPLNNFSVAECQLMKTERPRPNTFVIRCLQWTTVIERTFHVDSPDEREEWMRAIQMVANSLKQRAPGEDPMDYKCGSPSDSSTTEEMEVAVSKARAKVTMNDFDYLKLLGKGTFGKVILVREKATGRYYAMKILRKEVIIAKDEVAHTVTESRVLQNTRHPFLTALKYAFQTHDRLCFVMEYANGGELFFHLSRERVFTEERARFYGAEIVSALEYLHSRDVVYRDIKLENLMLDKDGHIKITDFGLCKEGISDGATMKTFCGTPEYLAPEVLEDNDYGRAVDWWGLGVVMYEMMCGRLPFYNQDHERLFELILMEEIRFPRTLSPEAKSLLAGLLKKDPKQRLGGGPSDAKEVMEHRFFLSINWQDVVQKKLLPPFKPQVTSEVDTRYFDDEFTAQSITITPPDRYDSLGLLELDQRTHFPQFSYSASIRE
Test [6] addresses Calcium/calmodulin-dependent protein kinase type II subunit beta (Homo sapiens) (UniProt Q13554). Kind of test: CAMK2B (CaMKII beta) Kinase screen. Particulars: Compound concentration 1.0 uM.
Test [7] has as its target Cyclin-dependent kinase 5/CDK5 activator 1 (Homo sapiens) (UniProt Q00535+Q15078). Kind of test: CDK5/p25 Kinase screen. The test is classed as protein-complex assay. Particulars: Compound concentration 1.0 uM.
Test [8] concerns the target Death-associated protein kinase 3 (Homo sapiens) (UniProt O43293). Kind of test: DAPK3 (ZIPK) Kinase screen. As to conditions: Compound concentration 1.0 uM.
Test [9] addresses Dual specificity tyrosine-phosphorylation-regulated kinase 1B (Homo sapiens) (UniProt Q9Y463). Kind of test: DYRK1B Kinase screen. As to conditions: Compound concentration 1.0 uM.
Test [10] deals with Tyrosine-protein kinase Fer (Homo sapiens) (UniProt P16591). The experiment in a line: FER Kinase screen. As to conditions: Compound concentration 1.0 uM.
Sequence of Tyrosine-protein kinase Fer (Homo sapiens) (P16591 whole entry, looked up): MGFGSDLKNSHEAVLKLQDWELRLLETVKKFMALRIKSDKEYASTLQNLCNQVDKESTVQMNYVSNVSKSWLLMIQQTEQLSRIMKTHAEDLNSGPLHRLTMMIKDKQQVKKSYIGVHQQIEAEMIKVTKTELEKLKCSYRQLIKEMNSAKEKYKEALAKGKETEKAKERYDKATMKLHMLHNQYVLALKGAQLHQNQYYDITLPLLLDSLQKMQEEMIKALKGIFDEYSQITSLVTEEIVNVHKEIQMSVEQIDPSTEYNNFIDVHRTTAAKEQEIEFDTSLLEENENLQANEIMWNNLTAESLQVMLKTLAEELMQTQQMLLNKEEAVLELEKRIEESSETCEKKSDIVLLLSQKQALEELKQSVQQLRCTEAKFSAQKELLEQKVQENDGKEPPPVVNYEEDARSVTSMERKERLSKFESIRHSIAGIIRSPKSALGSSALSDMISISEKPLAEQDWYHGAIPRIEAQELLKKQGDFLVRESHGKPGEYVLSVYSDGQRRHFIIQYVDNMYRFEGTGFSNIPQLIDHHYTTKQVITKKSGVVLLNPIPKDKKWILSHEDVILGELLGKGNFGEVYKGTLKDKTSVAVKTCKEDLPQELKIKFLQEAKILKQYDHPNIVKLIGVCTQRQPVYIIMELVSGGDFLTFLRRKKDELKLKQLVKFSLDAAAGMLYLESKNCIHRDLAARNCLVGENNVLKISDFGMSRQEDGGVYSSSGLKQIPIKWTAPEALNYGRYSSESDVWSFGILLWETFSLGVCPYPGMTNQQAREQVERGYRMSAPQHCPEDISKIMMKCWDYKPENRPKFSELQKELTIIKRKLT
Test [11] has as its target Tyrosine-protein kinase Fgr (Homo sapiens) (UniProt P09769). Kind of test: FGR Kinase screen. Particulars: Compound concentration 1.0 uM.
Test [12] has as its target Serine/threonine-protein kinase mTOR (Homo sapiens) (UniProt P42345). Kind of test: FRAP1 (mTOR) Kinase screen. Particulars: Compound concentration 1.0 uM.
Test [13] deals with Tyrosine-protein kinase FRK (Homo sapiens) (UniProt P42685). Kind of test: FRK (PTK5) Kinase screen. As to conditions: Compound concentration 1.0 uM.
Test [14] deals with Tyrosine-protein kinase JAK1 (Homo sapiens) (UniProt P23458). The experiment in a line: JAK1 Kinase screen. As to conditions: Compound concentration 1.0 uM.
The target of test [15] is T1, Mitogen-activated protein kinase 12 (Homo sapiens) (UniProt P53778).
T1 sequence (whole entry): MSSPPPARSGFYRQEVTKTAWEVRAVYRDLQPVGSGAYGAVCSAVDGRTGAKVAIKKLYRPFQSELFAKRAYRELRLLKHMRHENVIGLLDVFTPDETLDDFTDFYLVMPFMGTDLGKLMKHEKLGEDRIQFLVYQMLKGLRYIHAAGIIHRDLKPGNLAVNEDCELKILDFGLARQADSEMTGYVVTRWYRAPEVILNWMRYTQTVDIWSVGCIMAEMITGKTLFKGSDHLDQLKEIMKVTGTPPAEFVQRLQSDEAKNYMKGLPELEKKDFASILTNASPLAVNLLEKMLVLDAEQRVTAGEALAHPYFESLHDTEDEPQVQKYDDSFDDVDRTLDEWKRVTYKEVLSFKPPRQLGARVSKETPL
The experiment in a line: MAPK12 (p38 gamma) Kinase screen. Particulars: Compound concentration 1.0 uM.

Test [16] deals with MAP kinase-activated protein kinase 2 (Homo sapiens) (UniProt P49137). The experiment in a line: MAPKAPK2 Kinase screen. Particulars: Compound concentration 1.0 uM.
The target in test [17] is MAP kinase-interacting serine/threonine-protein kinase 1 (Homo sapiens) (UniProt Q9BUB5). Kind of test: MKNK1 (MNK1) Kinase screen. As to conditions: Compound concentration 1.0 uM.
Sequence of MAP kinase-interacting serine/threonine-protein kinase 1 (Homo sapiens) (Q9BUB5 whole entry, looked up): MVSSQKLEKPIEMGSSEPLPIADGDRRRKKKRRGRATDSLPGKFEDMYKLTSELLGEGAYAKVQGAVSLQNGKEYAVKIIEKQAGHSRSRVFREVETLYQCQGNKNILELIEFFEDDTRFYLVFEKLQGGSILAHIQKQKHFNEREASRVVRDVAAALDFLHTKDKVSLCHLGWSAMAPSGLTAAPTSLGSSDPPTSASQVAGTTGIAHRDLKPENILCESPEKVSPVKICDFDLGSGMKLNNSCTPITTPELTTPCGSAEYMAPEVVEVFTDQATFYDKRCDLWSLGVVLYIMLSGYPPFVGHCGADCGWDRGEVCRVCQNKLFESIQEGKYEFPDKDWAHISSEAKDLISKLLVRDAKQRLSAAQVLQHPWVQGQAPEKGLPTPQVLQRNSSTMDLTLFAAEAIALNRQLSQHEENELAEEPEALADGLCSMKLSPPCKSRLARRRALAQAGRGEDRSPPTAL
Test [18] deals with Serine/threonine-protein kinase PAK 2 (Homo sapiens) (UniProt Q13177). The experiment in a line: PAK2 (PAK65) Kinase screen. As to conditions: Compound concentration 1.0 uM.
Sequence of Serine/threonine-protein kinase PAK 2 (Homo sapiens) (Q13177 whole entry): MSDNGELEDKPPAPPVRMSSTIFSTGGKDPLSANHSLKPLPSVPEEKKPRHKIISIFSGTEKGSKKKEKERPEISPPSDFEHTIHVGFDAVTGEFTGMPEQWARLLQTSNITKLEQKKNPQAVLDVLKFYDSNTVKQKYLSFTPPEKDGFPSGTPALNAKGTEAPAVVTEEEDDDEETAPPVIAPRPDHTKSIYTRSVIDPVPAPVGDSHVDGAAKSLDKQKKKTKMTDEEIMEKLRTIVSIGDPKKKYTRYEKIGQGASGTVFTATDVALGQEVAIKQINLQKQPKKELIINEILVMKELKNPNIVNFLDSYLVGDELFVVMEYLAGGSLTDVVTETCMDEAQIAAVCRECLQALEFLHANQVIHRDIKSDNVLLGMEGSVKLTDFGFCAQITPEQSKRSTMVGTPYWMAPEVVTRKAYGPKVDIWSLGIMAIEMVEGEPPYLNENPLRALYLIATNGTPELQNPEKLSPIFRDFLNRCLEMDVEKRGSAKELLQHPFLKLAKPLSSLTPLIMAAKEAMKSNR
In test [19] the target is Serine/threonine-protein kinase PAK 4 (Homo sapiens) (UniProt O96013). Kind of test: PAK4 Kinase screen. Particulars: Compound concentration 1.0 uM.
Test [20] addresses PAS domain-containing serine/threonine-protein kinase (Homo sapiens) (UniProt Q96RG2). The experiment in a line: PASK Kinase screen. Particulars: Compound concentration 1.0 uM.
Test [21] addresses Phosphorylase b kinase gamma catalytic chain, skeletal muscle/heart isoform (Homo sapiens) (UniProt Q16816). Kind of test: PHKG1 Kinase screen. Particulars: Compound concentration 1.0 uM.
For test [22], the target named is Protein kinase C gamma type (Homo sapiens) (UniProt P05129). Kind of test: PRKCG (PKC gamma) Kinase screen. As to conditions: Compound concentration 1.0 uM.
Test [23] deals with T2, cGMP-dependent protein kinase 1 (Homo sapiens) (UniProt Q13976).
T2 sequence (whole entry): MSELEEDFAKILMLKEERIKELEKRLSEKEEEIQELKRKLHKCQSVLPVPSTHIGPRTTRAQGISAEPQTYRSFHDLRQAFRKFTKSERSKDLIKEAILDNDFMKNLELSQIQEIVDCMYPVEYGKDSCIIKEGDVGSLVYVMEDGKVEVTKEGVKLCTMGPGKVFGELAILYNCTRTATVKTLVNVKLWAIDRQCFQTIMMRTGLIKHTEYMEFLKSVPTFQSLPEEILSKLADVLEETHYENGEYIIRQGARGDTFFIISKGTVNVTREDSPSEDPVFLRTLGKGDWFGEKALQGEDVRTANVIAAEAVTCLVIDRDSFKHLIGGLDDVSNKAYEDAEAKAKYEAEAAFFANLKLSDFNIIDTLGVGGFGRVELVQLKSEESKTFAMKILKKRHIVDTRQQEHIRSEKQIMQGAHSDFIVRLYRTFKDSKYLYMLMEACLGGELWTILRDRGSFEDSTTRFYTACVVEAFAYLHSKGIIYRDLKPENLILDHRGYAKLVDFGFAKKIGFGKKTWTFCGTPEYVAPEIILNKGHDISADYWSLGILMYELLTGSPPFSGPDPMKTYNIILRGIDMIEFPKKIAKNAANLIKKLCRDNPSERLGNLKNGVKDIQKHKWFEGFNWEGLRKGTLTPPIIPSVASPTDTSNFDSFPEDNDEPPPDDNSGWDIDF
The experiment in a line: PRKG1 Kinase screen. As to conditions: Compound concentration 1.0 uM.

In test [24] the target is Ribosomal protein S6 kinase alpha-1 (Homo sapiens) (UniProt Q15418). The experiment in a line: RPS6KA1 (RSK1) Kinase screen. Particulars: Compound concentration 1.0 uM.
In test [25] the target is Ribosomal protein S6 kinase alpha-4 (Homo sapiens) (UniProt O75676). Kind of test: RPS6KA4 (MSK2) Kinase screen. As to conditions: Compound concentration 1.0 uM.
Test [26] addresses Sphingosine kinase 2 (Homo sapiens) (UniProt Q9NRA0). Kind of test: SPHK2 Kinase screen. As to conditions: Compound concentration 1.0 uM.
For test [27], the target named is Proto-oncogene tyrosine-protein kinase Src (Homo sapiens) (UniProt P12931). Kind of test: SRC N1 Kinase screen. Particulars: Compound concentration 1.0 uM.
In test [28] the target is Testis-specific serine/threonine-protein kinase 2 (Homo sapiens) (UniProt Q96PF2). The experiment in a line: STK22B (TSSK2) Kinase screen. As to conditions: Compound concentration 1.0 uM.
The target in test [29] is Serine/threonine-protein kinase 33 (Homo sapiens) (UniProt Q9BYT3). Kind of test: STK33 Kinase screen. As to conditions: Compound concentration 1.0 uM.
Sequence of Serine/threonine-protein kinase 33 (Homo sapiens) (Q9BYT3 whole entry, looked up): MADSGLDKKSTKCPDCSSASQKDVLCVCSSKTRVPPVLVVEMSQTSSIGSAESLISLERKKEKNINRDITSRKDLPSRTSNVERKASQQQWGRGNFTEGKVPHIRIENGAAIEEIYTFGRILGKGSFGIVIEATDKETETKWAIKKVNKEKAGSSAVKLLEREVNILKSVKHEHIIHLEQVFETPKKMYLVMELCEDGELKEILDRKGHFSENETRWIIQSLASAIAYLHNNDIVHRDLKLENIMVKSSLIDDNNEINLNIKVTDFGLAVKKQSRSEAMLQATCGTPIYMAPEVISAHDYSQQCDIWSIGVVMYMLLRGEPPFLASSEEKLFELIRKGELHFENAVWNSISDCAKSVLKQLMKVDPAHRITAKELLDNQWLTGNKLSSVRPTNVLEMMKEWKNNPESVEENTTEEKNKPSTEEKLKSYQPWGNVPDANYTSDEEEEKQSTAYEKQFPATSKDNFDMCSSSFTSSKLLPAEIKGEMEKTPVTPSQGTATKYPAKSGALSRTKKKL
For test [30], the target named is Prostaglandin E2 receptor EP3 subtype (Homo sapiens) (UniProt P43115). The experiment in a line: Prostanoid EP3 Eurofins-Panlabs radioligand binding assay. Also noted: ligand concentration 0.5 nM, non-specific ligand with concentration 10 µM Prostaglandin EŽ2 (PGE2), incubation time 60 min, incubation temperature 25 °C. Particulars: Compound concentration 10.0 uM.
Sequence of Prostaglandin E2 receptor EP3 subtype (Homo sapiens) (P43115 whole entry): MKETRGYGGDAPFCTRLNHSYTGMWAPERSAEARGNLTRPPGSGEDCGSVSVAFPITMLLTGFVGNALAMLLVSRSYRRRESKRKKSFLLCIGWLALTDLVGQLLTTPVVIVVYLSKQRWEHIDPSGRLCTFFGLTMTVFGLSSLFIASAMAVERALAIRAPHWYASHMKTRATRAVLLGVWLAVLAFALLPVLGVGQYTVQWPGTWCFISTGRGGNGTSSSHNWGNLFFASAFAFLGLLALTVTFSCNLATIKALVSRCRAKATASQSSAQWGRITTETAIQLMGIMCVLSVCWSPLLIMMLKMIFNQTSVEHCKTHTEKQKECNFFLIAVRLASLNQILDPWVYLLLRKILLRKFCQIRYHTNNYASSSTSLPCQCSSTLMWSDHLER

In test [31] the target is Mu-type opioid receptor (Homo sapiens) (UniProt P35372). As to conditions: Compound concentration 10.0 uM.
Sequence of Mu-type opioid receptor (Homo sapiens) (P35372 whole entry): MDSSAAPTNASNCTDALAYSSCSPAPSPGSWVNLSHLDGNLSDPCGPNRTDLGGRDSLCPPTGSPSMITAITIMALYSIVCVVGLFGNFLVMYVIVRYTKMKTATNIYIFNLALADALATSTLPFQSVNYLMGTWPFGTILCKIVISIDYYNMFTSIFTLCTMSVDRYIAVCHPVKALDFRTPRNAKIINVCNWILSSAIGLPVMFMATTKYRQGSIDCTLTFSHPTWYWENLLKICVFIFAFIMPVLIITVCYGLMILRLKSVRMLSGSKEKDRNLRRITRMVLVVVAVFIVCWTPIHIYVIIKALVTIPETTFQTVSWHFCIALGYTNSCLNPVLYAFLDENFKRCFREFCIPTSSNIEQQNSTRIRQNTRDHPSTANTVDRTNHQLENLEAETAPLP
Test [32] is filed under the species Rattus norvegicus. As to conditions: Compound concentration 10.0 uM.
Test [33] has as its target Sigma non-opioid intracellular receptor 1 (Homo sapiens, UniProt Q99720). The experiment in a line: GPCRScan assay: inhibition of Sigma 1. Also noted: radioligand conc. used [nm] 4.0 – 5.0, parental cells HEKT.

Usually inhibition stands for the change of the read-out against control, counted positive when it falls. Usually Ki stands for the dissociation constant of the complex between target and ligand, obtained from inhibition or displacement.

Sequence of Calcium/calmodulin-dependent protein kinase type II subunit beta (Homo sapiens) (Q13554 whole entry): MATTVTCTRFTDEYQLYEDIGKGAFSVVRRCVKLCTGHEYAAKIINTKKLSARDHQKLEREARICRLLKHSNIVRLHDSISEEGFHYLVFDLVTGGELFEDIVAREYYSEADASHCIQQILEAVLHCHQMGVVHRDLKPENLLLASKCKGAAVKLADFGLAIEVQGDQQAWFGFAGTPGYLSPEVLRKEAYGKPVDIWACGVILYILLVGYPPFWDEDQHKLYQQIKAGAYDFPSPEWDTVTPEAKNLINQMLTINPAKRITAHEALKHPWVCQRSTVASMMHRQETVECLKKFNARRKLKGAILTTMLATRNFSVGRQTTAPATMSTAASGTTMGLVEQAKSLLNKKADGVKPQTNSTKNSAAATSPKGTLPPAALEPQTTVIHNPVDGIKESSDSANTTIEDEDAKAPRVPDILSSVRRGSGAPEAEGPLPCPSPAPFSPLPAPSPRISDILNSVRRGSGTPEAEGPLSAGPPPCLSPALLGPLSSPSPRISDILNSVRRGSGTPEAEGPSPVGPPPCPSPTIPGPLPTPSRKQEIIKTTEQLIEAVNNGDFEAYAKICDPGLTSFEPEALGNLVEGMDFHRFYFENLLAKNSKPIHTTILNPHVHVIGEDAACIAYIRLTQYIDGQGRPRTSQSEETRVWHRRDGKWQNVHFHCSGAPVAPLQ
Sequence of Sigma non-opioid intracellular receptor 1 (Q99720 whole entry): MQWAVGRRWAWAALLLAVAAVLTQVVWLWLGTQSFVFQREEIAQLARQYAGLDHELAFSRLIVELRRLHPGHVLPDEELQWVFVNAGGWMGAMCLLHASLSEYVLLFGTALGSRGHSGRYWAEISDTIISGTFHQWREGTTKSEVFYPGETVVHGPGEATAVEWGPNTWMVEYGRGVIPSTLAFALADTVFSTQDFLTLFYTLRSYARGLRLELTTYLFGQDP

`C[C@@H]1CN(c2cc(-c3n[nH]c4ccc(OC5(C)CC5)cc34)ncn2)C[C@H](C)O1` [MLi-2]: the inhibition in test [1] was 8%; in test [3] it was 19%; in test [4], 4.43%; in test [5], 5.53%; in test [6] it was 12.6%; in test [7], -2.71%. For the same compound, the inhibition in test [8] is 5.27%; in test [9] it was 1.77%; in test [10], 26.7%; in test [11], -2.24%; in [12], 7.14%; in test [13] it was 7.13%. In addition, the inhibition in [14] is -2.46%; in test [15], 1%; in [16], 2.35%; in test [17], -3.19%; in [18], 8.73%; in [19] it was -7.34%. Further, the inhibition in test [20] was -0.0985%; in test [21], 0.801%; in [22], 1.24%; in test [23], 0.194%; in test [24], 8.66%; in [25], 7.68%. The inhibition was -0.739% in test [26]; 5.78% in test [27]; 10.2% in [28]; 24.3% in [29]; -4% in test [30]; 17% in test [31]. In test [32], the inhibition was 0%. This compound also displayed a Ki in test [2] of 3.79 µM.
Turning to `C[C@@H]1CN(c2cc(-c3nn(C)c4ccc(OC5(C)CC5)cc34)ncn2)C[C@H](C)O1` [MLi-2-NC], the Ki in test [33] came out at 1.59 µM.

The values are drawn from ChEMBL document CHEMBL4507291 (2021).
